Assay results reported in patent US10889563B2, “Deoxyuridine triphosphatase inhibitors” (University of Southern California, priority 2013, dated 2021).
pIC50: −log10 of the molar value.

Assays:
SW620 cells [1] = test: Colony formation assay, SW620; format: cell-based
Procedure: (§1) Colony forming assay showing the ability of colon (SW620, HCT 116), non-small cell lung (A549, H460, H1299 and H358) and breast (MCF7) cancer cells to survive and proliferate following transient 24 hour exposure to single agent PCI 1013, FUdR and combinations. Specifically, cells were seeded at densities between 50 and 100 cells/well in 24-well plates. Twenty-four hours later, cells were treated with increasing concentrations of PCI 10213, a fixed dose of FUdR and combinations of these. After 24 hours, drug was removed, cells were rinsed and allowed to outgrow for 10-14 days. At the conclusion of the outgrowth, cells were fixed in 60% ice cold methanol and stained with 0.1% crystal violet, scanned and counted. Data is presented as percentage of untreated controls (mean±SD). Fraction affected and combination indexes were calculated according to the method of Chou and Talalay where <1 is indicative of a synergistic drug interaction.
(§2) In colorectal cancer cells, concentrations of PCI 10213 ranging from 3.1 μmol/L to 50 μmol/L were combined with 0.5 μmol/L FUdR in HCT116 cells and 1 μmol/L FUdR in SW620 cells.

SW620 cells [2] = test: MTS growth inhibition assay, SW620; details: for growth inhibition as a single agent: SW620, 25 μmol/L single agent; for single agent activity / decrease in proliferation: 100 μmol/L single agent; for combined effect with 5-FU on growth inhibition: SW620, fixed 25 μmol/L compound plus increasing 5-FU, up to 25 μmol/L 5-FU
Procedure: (§4) The Cell Titer^96 AQueous MTS assay (Promega) was carried out according to the manufacturers guidelines. […] The combination effect was determined by the combination index (CI) method utilizing Calcusyn software (Biosoft, Ferguson, Mo.). Fraction affected (FA) was calculated from the percent growth inhibition: FA=(100−% growth inhibition)/100. CI values <1, synergism; 1-1.2, additive and >1.2, antagonism.
HCT116 and SW620 cells were exposed to increasing concentrations of each agent for 72 hours and growth inhibition was directly compared to vehicle-treated controls.

[3] = test system: colorectal (HCT116), breast (MCF-7) and non-small cell lung (H1299, A549, H358 and H460) cell line models; test: Colony formation assay, all cell lines evaluated; format: cell-based
Procedure: as §1
(§3) Subsequently, increasing concentrations of PCI 10213 were combined with a fixed dose of FUdR to evaluate the combined drug effect. In NSCLC cells, concentrations of PCI 10213 ranging from 3.1 μmol/L to 25 μmol/L were combined with 1 μmol/L FUdR. […] The effectiveness of this combination was pronounced in A549 and H460 cells where 12.5 and 25 μmol/L PCI 10213 combined with 1 μmol/L FUdR reduced cell viability by >95% compared to vehicle-treated controls.

[4] = target: T1, Recombinant human deoxyuridine nucleotidohydrolase (dUTPase) (Homo sapiens, UniProt P33316); test: Fluorescence-based dUTPase inhibition assay (Example 19; 5 ng dUTPase, 8 min at 37° C.); details: for inhibition at 2.6 µM: 2.6 umol/L compound; for inhibition at 5.2 µM: 5.2 umol/L compound; for inhibition at 10.4 µM: 10.4 umol/L compound; for inhibition at 20.8 µM: 20.8 umol/L compound; for inhibition at 41.7 µM: 41.7 umol/L compound
T1 sequence (P33316 1-164 isoform P33316-2): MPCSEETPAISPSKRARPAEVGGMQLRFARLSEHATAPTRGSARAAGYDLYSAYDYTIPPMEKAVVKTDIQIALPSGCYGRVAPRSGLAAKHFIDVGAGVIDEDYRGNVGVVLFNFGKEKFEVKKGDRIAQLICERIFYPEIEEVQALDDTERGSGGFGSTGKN
From the text: All drugs stocks were aliquoted and diluted as appropriate prior to use. The oligonucelotide primer, templates and fluorophore- and quencher-labeled detection probes are synthesized by Integrated DNA Technologies (Coralville, Iowa), subjected to polyacrylamide gel electrophoresis purification and reconstituted in Omnipur sterile nuclease-free water (EMD Chemicals USA, Gibbstown N.J.) at a stock concentration of 100 μmol/L. The two non-emissive (dark) quenching molecules incorporated into the detection probes include the Iowa black fluorescein quencher (IBFQ; absorption max 531 nm) and ZEN (non-abbreviation; absorption max 532 nm). The fluorescent label utilized was 6-FAM (5′-carboxyfluorescein; excitation max.=494 nm, emission max.=520 nm). Probes were further diluted to a working stock of 10 μmol/L and aliquoted to avoid repeated freeze/thaw cycles. AmpliTaq Gold DNA Polymerase, GeneAmp 10×PCR Buffer 2, MgCl2 and MicroAmp Optical 96-well Reaction Plates were purchased from Applied Biosystems (Carlsbad, Calif.). dNTPs were purchased individually at stock concentrations of 100 mmol/L from New England Biolabs at HPLC-certified >99% purity (Ipswich, Mass.).
Reaction mixtures contained primer, probe and template at an equimolar final concentration of 0.4 μmol/L. Magnesium chloride (MgCl2) was included at a final concentration of 2 mmol/L. Non-limiting dNTPs were included in the reaction mix in excess at a final concentration of 100 μmol/L (dUTP/dTTP was excluded). AmpliTaq Gold DNA polymerase was added at 0.875 U/reaction, 2.5 μl of 10×PCR buffer 2 added and nuclease-free ddH2O added to a final reaction volume of 25 μl. For dUTP inhibition analysis, the volume of ddH2O was further modified to accommodate an additional 1 μl of dUTPase (10 ng/μl) and 1 μl of inhibitor or DMSO control. Thermal profiling and fluorescence detection was performed using the ‘isothermal’ program on board an Applied Biosystems 7500 Real-Time PCR System. For analysis of dNTPs, the thermal profile consisted of an 8 min 37° C. step followed by a 10 min 95° C. step to ‘hot-start’ the Taq polymerase and a primer extension time of up to 30 min at 60° C. depending on the application. Raw fluorescence spectra for 6-FAM was measured using filter A at specified time intervals to follow assay progression using Sequence Detection Software (SDS Version 1.4, Applied Biosystems) and exported and analyzed in Microsoft Excel (Microsoft, Redmond Wash.) and Prism (GraphPad Software, La Jolla Calif.). In all cases, fluorescence values for blank reactions (limiting dNTP omitted) were subtracted to give normalized fluorescence units (NFU) to account for background fluorescence.
The assay employs a DNA polymerase-based approach utilizing an oligonucleotide template with 3 distinct regions: a 3′ primer binding region, a mid-template dUTP/thymidine triphosphate (TTP) detection region and a 5′ 6-Flavin adenine mononucleotide (FAM)-labeled probe binding region that incorporates a black hole quenching moiety.
reaction, the probe and primer hybridize to the oligonucleotide template to form the template:primer:probe complex. When Taq polymerase binds to the primer in the TPP complex and dUTP is present, successful extension of the nascent strand occurs and the inherent 5′ to 3′ exonuclease activity of Taq polymerase cleaves and displaces the 6-FAM-labeled probe in a 5′ to 3′ direction, releasing the 6-FAM fluorophore from its proximity to the three quenchers.

HCT116 cells [5] = test: Colony formation assay, HCT116; format: cell-based
Procedure: as §1, with “interaction. […]” for “interaction.”
as §2

A549 cells [6] = test: Colony formation assay, A549; format: cell-based
Procedure: as §1, §3

H460 cells = test: Colony formation assay, H460; format: cell-based
Procedure: as §1, §3

[7] = target: T1, Recombinant human deoxyuridine nucleotidohydrolase (dUTPase); test: Fluorescence-based dUTPase inhibition assay (Example 23; 2.5 ng dUTPase, 10 min at 37° C.); format: biochemical; set-up: made in house
From the text: PCI 10586, 10585 and 10213 were suspended in DMSO at a concentration of 100 mmol/L, fluorodeoxyuridine (FUdR) was obtained from Sigma (St Louis, Mo.) and maintained in sterile double-distilled water at stock concentrations of 50 mmol/L. Recombinant human deoxyuridine nucleotidohydrolase (dUTPase) was expressed and purified as described previously [Please provide reference or confirm as noted above].
The diastereomer compounds were isolated by preparative chiral HPLC and screened in a novel fluorescence-based assay as described in Wilson et al. (2011) Nucleic Acids Res., September 1 39(17). […] The subsequent fluorescence detection step involved five 10 min cycles at 60° C. to completion.

HCT116 cells [8] = details: for decrease in growth / reduction in proliferation: 100 μmol/L single agent; for combined effect with 5-FU on growth inhibition: HCT116, fixed 25 μmol/L compound plus increasing 5-FU, up to 25 μmol/L 5-FU
A549 cells [9] = test: MTS growth inhibition assay, A549; details: A549, 72 hours; for decrease in growth / reduction in proliferation: 100 μmol/L single agent
Procedure: as §4
(§5) The NSCLC cell lines A549 and H1299 were exposed to increasing concentrations of each agent for 72 hours and growth inhibition was directly compared to vehicle-treated controls.

H1299 cells = test: MTS growth inhibition assay, H1299; details: H1299, 72 hours, 100 μmol/L single agent
Procedure: as §4, §5

[10] = test system: NSCLC cells (H1299, A549, H358 and H460); test: Colony formation assay, NSCLC cells; format: cell-based; details: 3.1 to 25 μmol/L compound plus 1 μmol/L FUdR, vs single agents
Procedure: as §1, §3

HCT116 cells [11] = test: cells; details: Homo sapiens, HCT-116, read-out: growth inhibition as a single agent

SMILES: C[C@@H](NS(=O)(=O)CC/C=C/CC1CCC(=O)NC1=O)c1cccc(OCC2CC2)c1 (mixture of isomers) [PCI 10213]
- reduction of colony formation, combination with FUdR (SW620 cells [1]; SW620 (strongly FUdR-resistant), 12.5 and 25 μmol/L compound plus FUdR (0.5 μmol/L in the sentence)): > 50%
- colonies, all combinations with FUdR (SW620 cells [1]; SW620, 3.1 to 50 μmol/L compound plus 1 μmol/L FUdR): strong synergistic reduction in colonies
- number of colonies formed, single agent (SW620 cells [1]; SW620, PCI 10213 3.1 to 50 μmol/L or FUdR 1 μmol/L alone): neither PCI 10213 or the fixed dose of FUdR single agent had any significant effect on the number of colonies formed
- growth inhibition as a single agent (SW620 cells [2]): no detectable effect on growth inhibition
- single agent activity / decrease in proliferation (SW620 cells [2]; SW620, 72 hours): ~30%
- single agent activity (growth inhibition vs vehicle) (SW620 cells [2]; SW620, 72 hours, up to 75 μmol/L): neither PCI 10213 or 10214 had any single agent activity
- combined effect with 5-FU on growth inhibition (SW620 cells [2]): additive and synergistic increases in growth inhibition
- number of colonies formed, compound alone ([3]; 3.1 to 25 μmol/L single agent): no significant effects on the number of colonies formed
- pIC50 [4]: 5.14
- inhibition at 1.3 µM ([4]; 1.3 umol/L compound): 28%
- inhibition at 2.6 µM [4]: 31.6%
- inhibition at 5.2 µM [4]: 40.9%
- inhibition at 10.4 µM [4]: 60.3%
- inhibition at 20.8 µM [4]: 64.5%
- inhibition at 41.7 µM [4]: 73.8%
- % Inhibition ([4]; 83.3 umol/L compound): 86.1%
- inhibition at 83.3 µM ([4]; 83.3 umol/L compound): 86%
- viability, combination with FUdR (HCT116 cells [5]; HCT116, 50 μmol/L compound plus FUdR): complete loss of viability
- colonies, all combinations with FUdR (HCT116 cells [5]; HCT116, 3.1 to 50 μmol/L compound plus 0.5 μmol/L FUdR): strong synergistic reduction in colonies
- reduction of colony formation, combination with FUdR (HCT116 cells [5]; HCT116, 12.5 and 25 μmol/L compound plus 0.5 μmol/L FUdR): > 95%
- number of colonies formed, single agent (HCT116 cells [5]; HCT116, PCI 10213 3.1 to 50 μmol/L or FUdR 0.5 μmol/L alone): neither PCI 10213 or the fixed dose of FUdR single agent had any significant effect on the number of colonies formed
- reduction of cell viability, combination with FUdR (A549 cells [6]; A549, 12.5 and 25 μmol/L compound plus 1 μmol/L FUdR, vs vehicle-treated controls): > 95%
- reduction of cell viability, combination with FUdR (H460 cells; H460, 12.5 and 25 μmol/L compound plus 1 μmol/L FUdR, vs vehicle-treated controls): > 95%
- inhibition at 1.3 µM ([7]; 1.3 μmol/L compound): 4.7%
- inhibition at 2.6 µM ([7]; 2.6 μmol/L compound): 9.6%
- inhibition at 5.2 µM ([7]; 5.2 μmol/L compound): 14.5%
- inhibition at 10.4 µM ([7]; 10.4 μmol/L compound): 24.9%
- inhibition at 20.8 µM ([7]; 20.8 μmol/L compound): 30%
- inhibition at 41.7 µM ([7]; 41.7 μmol/L compound): 45.5%
- inhibition at 83.3 µM ([7]; 83.3 μmol/L compound): 54.6%
- growth inhibition as a single agent (HCT116 cells [8]; HCT116, 25 μmol/L single agent): no detectable effect on growth inhibition
- decrease in growth / reduction in proliferation (HCT116 cells [8]; HCT116, 72 hours): 28%
- single agent activity (growth inhibition vs vehicle) (HCT116 cells [8]; HCT116, 72 hours, up to 75 μmol/L): little to no single agent activity
- combined effect with 5-FU on growth inhibition (HCT116 cells [8]): additive and synergistic increases in growth inhibition
- decrease in growth / reduction in proliferation (A549 cells [9]): ~25%
- decrease in cell proliferation (H1299 cells): 40%
- colonies formed, combination with FUdR [10]: highly significant reductions in colonies formed

SMILES: C[C@@H](NS(=O)(=O)CC/C=C/Cn1ccc(=O)[nH]c1=O)c1cccc(OCC2CC2)c1 [PCI 10216, reference compound]
- growth inhibition as a single agent (SW620 cells [2]): 30%
- single agent activity / decrease in proliferation (SW620 cells [2]; SW620, 72 hours): 70%
- combined effect with 5-FU on growth inhibition (SW620 cells [2]): additive and synergistic increases in growth inhibition
- combined drug effect with fixed doses of FUdR ([3]; all cell lines examined (Example 22)): strong synergy
- pIC50 [4]: 6.10
- % Inhibition ([4]; 1.3 umol/L compound): 60.4%
- inhibition at 1.3 µM ([4]; 1.3 umol/L compound): 60%
- inhibition at 2.6 µM [4]: 76.6%
- inhibition at 5.2 µM [4]: 84.6%
- inhibition at 10.4 µM [4]: 95.9%
- inhibition at 20.8 µM [4]: 101%
- inhibition at 41.7 µM [4]: 97.2%
- % Inhibition ([4]; 83.3 umol/L compound): 95.4%
- inhibition at 83.3 µM ([4]; 83.3 umol/L compound): 95%
- number of colonies formed, compound alone (HCT116 cells [5]; HCT116, 25 and 50 μmol/L single agent): some reduction in the number of colonies formed
- inhibition at 25 µM (HCT116 cells [11]): 44%
- number of colonies formed, compound alone (A549 cells [6]; A549, 25 and 50 μmol/L single agent): some reduction in the number of colonies formed
- number of colonies formed, compound alone (H460 cells; H460, 25 and 50 μmol/L single agent): some reduction in the number of colonies formed
- decrease in growth / reduction in proliferation (HCT116 cells [8]; HCT116, 72 hours): 67%
- lowest concentration with detectable decrease in cell proliferation (HCT116 cells [8]; HCT116, 72 hours, single agent): 6.25 µmol/L
- combined effect with 5-FU on growth inhibition (HCT116 cells [8]): additive and synergistic increases in growth inhibition
- reduction in proliferation (A549 cells [9]; 75 μmol/L single agent): 30%
- decrease in growth / reduction in proliferation (A549 cells [9]): 55%
- decrease in cell proliferation (H1299 cells): 30%
